Assays:
Rat [1] = assay: concentration in plasma after dosing; details: 0.2 h; dosed: 2-Methyltetrahydrofuran; 40 mg/kg; iv; Male; Harlan Sprague Dawley
Rat [2] = assay: concentration in plasma after dosing; details: 4 h; dosed: 2-Methyltetrahydrofuran; 40 mg/kg; iv; Female; Harlan Sprague Dawley
Rat [3] = assay: concentration in plasma after dosing; details: 2 h; dosed: 2-Methyltetrahydrofuran; 40 mg/kg; iv; Male; Harlan Sprague Dawley
Rat [4] = assay: concentration in plasma after dosing; details: 0.5 h; dosed: 2-Methyltetrahydrofuran; 40 mg/kg; iv; Female; Harlan Sprague Dawley
Rat [5] = assay: concentration in plasma after dosing; details: 1.5 h; dosed: 2-Methyltetrahydrofuran; 40 mg/kg; iv; Male; Harlan Sprague Dawley
Rat [6] = assay: concentration in plasma after dosing; details: 0.5 h; dosed: 2-Methyltetrahydrofuran; 40 mg/kg; iv; Male; Harlan Sprague Dawley
Rat [7] = assay: concentration in plasma after dosing; details: 192 h; dosed: 678-39-7; 40 mg/kg; iv; Male; F344
Rat [8] = assay: concentration in plasma after dosing; details: dosed: Fluorotelomer alcohol 8+2, 12 mg/kg, oral, Male, Harlan Sprague Dawley
Rat [9] = assay: concentration in plasma after dosing; details: 192 h; dosed: Fluorotelomer alcohol 8+2; 24 mg/kg; oral; Male; Harlan Sprague Dawley
Rat [10] = assay: concentration in brain after dosing; details: 0.5 h; dosed: Fluorotelomer alcohol 8+2; 24 mg/kg; oral; Male; Harlan Sprague Dawley
Rat [11] = assay: concentration in plasma after dosing; details: dosed: Fluorotelomer alcohol 8+2, 12 mg/kg, oral, Male, Harlan Sprague Dawley; remark: listed apart in the source
Rat [12] = assay: concentration in kidney after dosing; details: 3 h; dosed: Fluorotelomer alcohol 8+2; 24 mg/kg; oral; Male; Harlan Sprague Dawley
Rat [13] = assay: concentration in liver after dosing; details: 3 h; dosed: Fluorotelomer alcohol 8+2; 24 mg/kg; oral; Male; Harlan Sprague Dawley
Rat [14] = assay: concentration in brain after dosing; details: 1 h; dosed: Fluorotelomer alcohol 8+2; 24 mg/kg; oral; Male; Harlan Sprague Dawley
Rat [15] = assay: concentration in kidney after dosing; details: 0.5 h; dosed: Fluorotelomer alcohol 8+2; 24 mg/kg; oral; Male; Harlan Sprague Dawley
Rat [16] = assay: concentration in kidney after dosing; details: 3 h; dosed: Fluorotelomer alcohol 8+2; 24 mg/kg; oral; Male; Harlan Sprague Dawley; remark: listed apart in the source
Rat [17] = assay: concentration in plasma after dosing; details: 3 h; dosed: 678-39-7; 40 mg/kg; iv; Male; F344
Rat [18] = assay: concentration in kidney after dosing; details: 3 h; dosed: Perfluorohexanoic Acid; 80 mg/kg; oral; Male; Harlan Sprague Dawley
Rat [19] = assay: concentration in liver after dosing; details: 3 h; dosed: Perfluorohexanoic Acid; 80 mg/kg; oral; Female; Harlan Sprague Dawley
Rat [20] = assay: concentration in plasma after dosing; details: 0.75 h; dosed: Perfluorohexanoic Acid; 40 mg/kg; iv; Male; F344
Rat [21] = assay: concentration in plasma after dosing; details: dosed: Perfluorohexanoic Acid, 40 mg/kg, oral, Male, Harlan Sprague Dawley
Rat [22] = assay: concentration in brain after dosing; details: 0.5 h; dosed: Perfluorohexanoic Acid; 80 mg/kg; oral; Female; Harlan Sprague Dawley
Rat [23] = assay: concentration in liver after dosing; details: 6 h; dosed: Perfluorooctane Sulfonate; 2 mg/kg; oral; Female; Harlan Sprague Dawley
Rat [24] = assay: concentration in brain after dosing; details: 24 h; dosed: Perfluorooctane Sulfonate; 20 mg/kg; oral; Female; F344
Rat [25] = assay: concentration in plasma after dosing; details: dosed: Perfluorooctane Sulfonate, 2 mg/kg, iv, Male, F344
Rat [26] = assay: concentration in liver after dosing; details: 864 h; dosed: Perfluorooctane Sulfonate; 20 mg/kg; oral; Female; F344
Rat [27] = assay: concentration in plasma after dosing; details: dosed: Perfluorooctane Sulfonate, 2 mg/kg, oral, Female, Harlan Sprague Dawley
Rat [28] = assay: concentration in kidney after dosing; details: 3360 h; dosed: Perfluorooctane Sulfonate; 20 mg/kg; oral; Male; Harlan Sprague Dawley
Rat [29] = assay: concentration in kidney after dosing; details: 24 h; dosed: Perfluorooctane Sulfonate; 2 mg/kg; oral; Female; Harlan Sprague Dawley
Rat [30] = assay: concentration in liver after dosing; details: 1848 h; dosed: Perfluorooctane Sulfonate; 20 mg/kg; oral; Male; Harlan Sprague Dawley
Rat [31] = assay: concentration in brain after dosing; details: 3360 h; dosed: Perfluorooctane Sulfonate; 20 mg/kg; oral; Male; Harlan Sprague Dawley
Rat [32] = assay: concentration in plasma after dosing; details: 6 h; dosed: Perfluorooctane Sulfonate; 2 mg/kg; oral; Female; Harlan Sprague Dawley
Rat [33] = assay: concentration in plasma after dosing; details: 10 h; dosed: Gemfibrozil; 4.29 mg/kg; oral; Male; Sprague-Dawley
Rat [34] = assay: concentration in plasma after dosing; details: 15 h; dosed: Gemfibrozil; 50 mg/kg; oral; Male; Sprague-Dawley
Rat [35] = assay: concentration in plasma after dosing; details: 6 h; dosed: Gemfibrozil; 100 mg/kg; oral; Male; Sprague-Dawley
Rat [36] = assay: concentration in plasma after dosing; details: 1 h; dosed: Gemfibrozil; 4.29 mg/kg; oral; Male; Sprague-Dawley
Rat [37] = assay: concentration in plasma after dosing; details: 10 min; dosed: Gemfibrozil; 100 mg/kg; oral; Male; Sprague-Dawley
Rat [38] = assay: concentration in plasma after dosing; details: 1 h; dosed: Gemfibrozil; 50 mg/kg; oral; Male; Sprague-Dawley
Rat [39] = assay: concentration in plasma after dosing; details: 10 h; dosed: Gemfibrozil; 4.29 mg/kg; oral; Male; Sprague-Dawley; remark: listed apart in the source
Rat [40] = assay: concentration in plasma after dosing; details: 24 h; dosed: Gemfibrozil; 4.29 mg/kg; oral; Male; Sprague-Dawley

CC1CCCO1 (stereo unspecified) [2-Methyltetrahydrofuran]
Details | concentration in plasma [µg/mL]
Rat [1] | 37.6
Rat [2] | 0.185
Rat [3] | 13.9
Rat [4] | 27.2
Rat [5] | 11.4
Rat [6] | 25.6

O=C(O)CCC(F)(F)C(F)(F)C(F)(F)C(F)(F)C(F)(F)C(F)(F)C(F)(F)F [Fluorotelomer acid 7+3]
Details | concentration in brain [ng/g] | concentration in kidney [ng/g] | concentration in liver [ng/g] | concentration in plasma [ng/mL]
Rat [7] | – | – | – | 49.7
Rat [9] | – | – | – | 62.9
Rat [10] | 81.2 | – | – | –
Rat [12] | – | 1320 | – | –
Rat [13] | – | – | 2780 | –
Rat [14] | 160 | – | – | –
Rat [15] | – | 198 | – | –
Rat [16] | – | 1450 | – | –
Rat [17] | – | – | – | 2370

concentration in plasma [ng/mL]
Details | 0.25 h | 6 h | 48 h | 192 h
Rat [8] | – | – | 169 | 26.3
Rat [11] | 41.6 | 841 | – | –

O=C(O)C(F)(F)C(F)(F)C(F)(F)C(F)(F)C(F)(F)F [Perfluorohexanoic Acid]
Details | concentration in brain [ng/g] | concentration in kidney [ng/g] | concentration in liver [ng/g] | concentration in plasma [ng/mL]
Rat [18] | – | 65000 | – | –
Rat [19] | – | – | 14700 | –
Rat [20] | – | – | – | 15200
Rat [22] | 1270 | – | – | –

Rat [21]
Details | concentration in plasma [ng/mL]
1 h | 39400
24 h | 423

O=S(=O)([O-])C(F)(F)C(F)(F)C(F)(F)C(F)(F)C(F)(F)C(F)(F)C(F)(F)C(F)(F)F [Perfluorooctane Sulfonate]
Details | concentration in brain [ng/g] | concentration in kidney [ng/g] | concentration in liver [ng/g] | concentration in plasma [ng/mL]
Rat [23] | – | – | 24500 | –
Rat [24] | 7400 | – | – | –
Rat [26] | – | – | 77100 | –
Rat [28] | – | 4960 | – | –
Rat [29] | – | 8400 | – | –
Rat [30] | – | – | 51700 | –
Rat [31] | 1260 | – | – | –
Rat [32] | – | – | – | 4580

concentration in plasma [ng/mL]
Details | 6 h | 12 h | 528 h | 864 h | 3216 h
Rat [25] | 4220 | – | – | 1290 | 359
Rat [27] | – | 6280 | 2270 | – | –

Cc1ccc(C)c(OCCCC(C)(C)C(=O)O)c1 [Gemfibrozil]
Details | concentration in plasma [µg/mL]
Rat [33] | 0.189
Rat [34] | 0.928
Rat [35] | 22.7
Rat [36] | 0.142
Rat [37] | 50.4
Rat [38] | 3.37
Rat [39] | 0.405
Rat [40] | 0.159
